The target of one assay is T1, LHRH receptors (Rattus norvegicus, UniProt P30969).
T1 construct: Pituitary membranes containing LHRH receptors are prepared in batches from quick-frozen rat pituitaries; tissue Hilltop Labs; host or cells: rat pituitary membranes
T1 sequence (P30969 1-327): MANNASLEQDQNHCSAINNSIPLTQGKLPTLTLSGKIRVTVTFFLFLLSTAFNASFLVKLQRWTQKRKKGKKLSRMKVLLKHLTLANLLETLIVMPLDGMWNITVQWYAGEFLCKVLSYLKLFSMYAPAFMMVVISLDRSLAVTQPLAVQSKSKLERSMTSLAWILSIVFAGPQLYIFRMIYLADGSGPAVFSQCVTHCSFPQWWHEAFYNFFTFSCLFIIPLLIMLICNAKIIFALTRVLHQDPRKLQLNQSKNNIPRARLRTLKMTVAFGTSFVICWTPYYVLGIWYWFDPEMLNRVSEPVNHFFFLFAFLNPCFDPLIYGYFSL
As to the kind of experiment: Receptor Binding (radioligand receptor binding assay). As to conditions: rat pituitary membranes, 2 hours at 4° C.

The target in the next assay is T2, Rat pituitaries (Rattus norvegicus, UniProt P30969).
T2 sequence (P30969 1-327): T1 sequence (P30969 1-327)
As to the kind of experiment: In vitro LH release suppression by LHRH antagonists in presence of superagonist [D-Leu^6 -Pro^9 NHEt]LHRH (pA2). In kind it is cell-based. As to conditions: negative log of concentration producing half-maximum suppression of LH.

A further assay concerns castrated rats. The experiment in a line: In vivo LH Release. On the set-up: species or system rat. As to conditions: table 3, dose producing half-maximal LH release. As for the experimental part:
(d) In vivo LH Release. The compound to be tested is administered to castrated rats intraveneously and the serum LH concentration at various time points is measured by RIA. The time integrated LH response is calculated and the dose producing half-maximal LH release (ED50) is reported.

These results are taken from US5140009A (Tap Pharmaceuticals, Inc., priority 1990, dated 1992).

For “(3-10)[N-(3-(4-Fluorophenyl)propionyl)-D-Trp^3 -NMeTyr^5 -D-Lys^6 -D-Ala^10 ]LHRH [Compound 182]”, the “Receptor Binding pkI” value on LHRH receptors (table 4, radioligand 50 pM) was 10.55. Besides, on Rat pituitaries (table 4), the “LH Inhibition pA2” value is 9.32.

For `CC(C)C[C@H](NC(=O)CNC(=O)[C@H](Cc1ccc(O)cc1)NC(=O)[C@H](CO)NC(=O)[C@H](Cc1c[nH]c2ccccc12)NC(=O)[C@H](Cc1c[nH]cn1)NC(=O)[C@@H]1CCC(=O)N1)C(=O)N[C@@H](CCCNC(=N)N)C(=O)N1CCC[C@H]1C(=O)NCC(N)=O` [LHRH, Luteinizing hormone releasing hormone], in the assay with castrated rats, the ED50 ug/kg i.v. is 859 µg/kg.

Turning to “(2-9)[N-(N-alpha-Morpholinocarbonyl)-D,L-4-F-Phe^2 -D-Trp^6 -Pro^9 NHEt]LHRH [Compound 113]”, the “Receptor Binding pkI” value at LHRH receptors (table 3, radioiodinated [D-Leu^6 -des Gly^10 ]-LHRH ethyl amide 50 pM) is 9.51. In addition, on Rat pituitaries (table 3), the “LH Inhibition pA2” value is reported as 8.63.
